Assay results published in ChEMBL document CHEMBL5442219.

How the values were obtained:
Details in all cases: Compound concentration 10 µM
[1] = target: T1, Alpha-1D adrenergic receptor (Homo sapiens) (UniProt P25100)
T1 sequence (whole entry): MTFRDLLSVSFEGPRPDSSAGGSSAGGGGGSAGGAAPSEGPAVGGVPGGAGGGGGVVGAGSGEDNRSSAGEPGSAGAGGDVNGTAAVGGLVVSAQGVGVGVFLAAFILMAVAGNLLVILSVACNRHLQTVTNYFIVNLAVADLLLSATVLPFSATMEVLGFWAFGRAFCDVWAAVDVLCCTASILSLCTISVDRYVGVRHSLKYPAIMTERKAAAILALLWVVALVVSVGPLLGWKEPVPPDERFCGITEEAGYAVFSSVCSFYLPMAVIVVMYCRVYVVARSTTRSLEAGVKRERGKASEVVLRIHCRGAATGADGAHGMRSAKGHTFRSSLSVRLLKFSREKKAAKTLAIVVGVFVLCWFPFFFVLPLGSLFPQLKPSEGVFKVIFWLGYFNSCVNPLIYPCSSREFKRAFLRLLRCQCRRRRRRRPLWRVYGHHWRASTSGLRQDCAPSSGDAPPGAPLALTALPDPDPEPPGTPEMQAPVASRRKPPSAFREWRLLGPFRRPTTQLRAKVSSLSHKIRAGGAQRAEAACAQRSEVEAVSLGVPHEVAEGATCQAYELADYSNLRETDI
Description: PDSP Primary Binding target: ADRA1D - Compounds are tested at 10 uM concentration, plate are incubated at room temperature in the dark for 90 minutes. Reaction are stopped by vacuum filtration onto 0.3% polyethyleneimine soaked filter mats using Filtermate harvester. Scintilation cocktail is then melted onto microwave-dried filters on a hot plate and the radio activity is counted in Microbia counter.

[2] = target: T2, Alpha-2A adrenergic receptor (Homo sapiens) (UniProt P08913)
T2 sequence (whole entry): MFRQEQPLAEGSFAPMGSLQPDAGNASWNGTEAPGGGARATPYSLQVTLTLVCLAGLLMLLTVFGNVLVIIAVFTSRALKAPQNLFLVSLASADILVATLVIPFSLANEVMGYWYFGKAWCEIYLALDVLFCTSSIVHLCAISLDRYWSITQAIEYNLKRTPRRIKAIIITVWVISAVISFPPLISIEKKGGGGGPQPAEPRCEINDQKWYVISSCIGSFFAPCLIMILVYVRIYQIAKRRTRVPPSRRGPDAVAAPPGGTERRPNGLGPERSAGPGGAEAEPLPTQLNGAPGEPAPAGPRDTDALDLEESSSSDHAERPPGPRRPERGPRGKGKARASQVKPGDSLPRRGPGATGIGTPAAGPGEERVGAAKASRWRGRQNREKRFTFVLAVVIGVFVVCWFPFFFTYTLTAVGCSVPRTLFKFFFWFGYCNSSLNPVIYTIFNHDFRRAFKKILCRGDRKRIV
Description: PDSP Primary Binding target: ADRA2A - Compounds are tested at 10 uM concentration, plate are incubated at room temperature in the dark for 90 minutes. Reaction are stopped by vacuum filtration onto 0.3% polyethyleneimine soaked filter mats using Filtermate harvester. Scintilation cocktail is then melted onto microwave-dried filters on a hot plate and the radio activity is counted in Microbia counter.

[3] = target: T3, Alpha-2B adrenergic receptor (Homo sapiens) (UniProt P18089)
T3 sequence (whole entry): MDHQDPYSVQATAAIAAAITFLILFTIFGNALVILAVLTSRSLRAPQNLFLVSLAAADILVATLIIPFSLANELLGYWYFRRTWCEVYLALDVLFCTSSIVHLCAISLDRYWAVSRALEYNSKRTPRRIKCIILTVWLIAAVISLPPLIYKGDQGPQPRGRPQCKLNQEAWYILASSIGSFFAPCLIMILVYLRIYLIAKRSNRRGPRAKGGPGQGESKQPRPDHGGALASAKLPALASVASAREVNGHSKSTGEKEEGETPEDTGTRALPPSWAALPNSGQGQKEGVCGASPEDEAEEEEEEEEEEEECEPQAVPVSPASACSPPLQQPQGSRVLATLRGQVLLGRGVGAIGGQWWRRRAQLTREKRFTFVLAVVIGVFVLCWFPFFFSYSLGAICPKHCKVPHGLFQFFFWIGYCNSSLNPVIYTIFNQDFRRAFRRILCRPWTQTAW
Description: PDSP Primary Binding target: ADRA2B - Compounds are tested at 10 uM concentration, plate are incubated at room temperature in the dark for 90 minutes. Reaction are stopped by vacuum filtration onto 0.3% polyethyleneimine soaked filter mats using Filtermate harvester. Scintilation cocktail is then melted onto microwave-dried filters on a hot plate and the radio activity is counted in Microbia counter.

[4] = target: T4, Alpha-2C adrenergic receptor (Homo sapiens) (UniProt P18825)
T4 sequence (whole entry): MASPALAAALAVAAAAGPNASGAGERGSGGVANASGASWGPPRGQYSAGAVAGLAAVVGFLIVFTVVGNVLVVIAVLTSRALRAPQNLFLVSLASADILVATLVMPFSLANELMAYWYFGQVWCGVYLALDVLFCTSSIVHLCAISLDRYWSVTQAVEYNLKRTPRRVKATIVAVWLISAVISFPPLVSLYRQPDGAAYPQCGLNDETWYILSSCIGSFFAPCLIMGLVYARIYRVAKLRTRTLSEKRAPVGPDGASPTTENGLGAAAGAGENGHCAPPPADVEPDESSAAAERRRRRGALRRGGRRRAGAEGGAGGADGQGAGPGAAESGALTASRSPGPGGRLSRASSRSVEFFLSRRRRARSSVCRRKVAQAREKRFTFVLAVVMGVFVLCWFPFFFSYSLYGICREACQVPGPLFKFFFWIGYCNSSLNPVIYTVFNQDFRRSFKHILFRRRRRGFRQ
Description: PDSP Primary Binding target: ADRA2C - Compounds are tested at 10 uM concentration, plate are incubated at room temperature in the dark for 90 minutes. Reaction are stopped by vacuum filtration onto 0.3% polyethyleneimine soaked filter mats using Filtermate harvester. Scintilation cocktail is then melted onto microwave-dried filters on a hot plate and the radio activity is counted in Microbia counter.

[5] = target: Beta-2 adrenergic receptor (Homo sapiens) (UniProt P07550)
Description: PDSP Primary Binding target: ADRB2 - Compounds are tested at 10 uM concentration, plate are incubated at room temperature in the dark for 90 minutes. Reaction are stopped by vacuum filtration onto 0.3% polyethyleneimine soaked filter mats using Filtermate harvester. Scintilation cocktail is then melted onto microwave-dried filters on a hot plate and the radio activity is counted in Microbia counter.

[6] = target: T5, Muscarinic acetylcholine receptor M5 (Homo sapiens) (UniProt P08912)
T5 sequence (whole entry): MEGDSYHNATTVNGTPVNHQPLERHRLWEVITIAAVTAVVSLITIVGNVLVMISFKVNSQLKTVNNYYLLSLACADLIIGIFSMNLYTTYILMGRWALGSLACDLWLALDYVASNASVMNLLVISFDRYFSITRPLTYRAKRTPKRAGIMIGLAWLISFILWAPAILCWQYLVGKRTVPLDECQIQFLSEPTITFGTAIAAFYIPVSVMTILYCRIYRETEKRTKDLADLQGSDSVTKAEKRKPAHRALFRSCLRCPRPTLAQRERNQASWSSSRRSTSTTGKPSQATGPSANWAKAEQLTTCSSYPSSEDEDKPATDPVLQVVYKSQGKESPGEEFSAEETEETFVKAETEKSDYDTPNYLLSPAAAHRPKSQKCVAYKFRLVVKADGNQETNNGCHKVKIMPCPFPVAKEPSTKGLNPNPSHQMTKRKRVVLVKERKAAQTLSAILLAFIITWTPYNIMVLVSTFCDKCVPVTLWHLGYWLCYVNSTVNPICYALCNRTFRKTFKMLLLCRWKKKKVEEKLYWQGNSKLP
Description: PDSP Primary Binding target: CHRM5 - Compounds are tested at 10 uM concentration, plate are incubated at room temperature in the dark for 90 minutes. Reaction are stopped by vacuum filtration onto 0.3% polyethyleneimine soaked filter mats using Filtermate harvester. Scintilation cocktail is then melted onto microwave-dried filters on a hot plate and the radio activity is counted in Microbia counter.

[7] = target: D(2) dopamine receptor (Homo sapiens) (UniProt P14416)
Description: PDSP Primary Binding target: DRD2 - Compounds are tested at 10 uM concentration, plate are incubated at room temperature in the dark for 90 minutes. Reaction are stopped by vacuum filtration onto 0.3% polyethyleneimine soaked filter mats using Filtermate harvester. Scintilation cocktail is then melted onto microwave-dried filters on a hot plate and the radio activity is counted in Microbia counter.

[8] = target: 5-hydroxytryptamine receptor 1B (Homo sapiens) (UniProt P28222)
Description: PDSP Primary Binding target: HTR1B - Compounds are tested at 10 uM concentration, plate are incubated at room temperature in the dark for 90 minutes. Reaction are stopped by vacuum filtration onto 0.3% polyethyleneimine soaked filter mats using Filtermate harvester. Scintilation cocktail is then melted onto microwave-dried filters on a hot plate and the radio activity is counted in Microbia counter.

[9] = target: 5-hydroxytryptamine receptor 1E (Homo sapiens) (UniProt P28566)
Description: PDSP Primary Binding target: HTR1E - Compounds are tested at 10 uM concentration, plate are incubated at room temperature in the dark for 90 minutes. Reaction are stopped by vacuum filtration onto 0.3% polyethyleneimine soaked filter mats using Filtermate harvester. Scintilation cocktail is then melted onto microwave-dried filters on a hot plate and the radio activity is counted in Microbia counter.

[10] = target: 5-hydroxytryptamine receptor 7 (Homo sapiens) (UniProt P34969)
Description: PDSP Primary Binding target: HTR7 - Compounds are tested at 10 uM concentration, plate are incubated at room temperature in the dark for 90 minutes. Reaction are stopped by vacuum filtration onto 0.3% polyethyleneimine soaked filter mats using Filtermate harvester. Scintilation cocktail is then melted onto microwave-dried filters on a hot plate and the radio activity is counted in Microbia counter.

[11] = target: Sigma non-opioid intracellular receptor 1 (Homo sapiens) (UniProt Q99720)
Description: PDSP Primary Binding target: SIGMAR1 - Compounds are tested at 10 uM concentration, plate are incubated at room temperature in the dark for 90 minutes. Reaction are stopped by vacuum filtration onto 0.3% polyethyleneimine soaked filter mats using Filtermate harvester. Scintilation cocktail is then melted onto microwave-dried filters on a hot plate and the radio activity is counted in Microbia counter.

[12] = target: Sodium-dependent noradrenaline transporter (Homo sapiens) (UniProt P23975)
Chain of Sodium-dependent noradrenaline transporter (Homo sapiens) (P23975 whole entry): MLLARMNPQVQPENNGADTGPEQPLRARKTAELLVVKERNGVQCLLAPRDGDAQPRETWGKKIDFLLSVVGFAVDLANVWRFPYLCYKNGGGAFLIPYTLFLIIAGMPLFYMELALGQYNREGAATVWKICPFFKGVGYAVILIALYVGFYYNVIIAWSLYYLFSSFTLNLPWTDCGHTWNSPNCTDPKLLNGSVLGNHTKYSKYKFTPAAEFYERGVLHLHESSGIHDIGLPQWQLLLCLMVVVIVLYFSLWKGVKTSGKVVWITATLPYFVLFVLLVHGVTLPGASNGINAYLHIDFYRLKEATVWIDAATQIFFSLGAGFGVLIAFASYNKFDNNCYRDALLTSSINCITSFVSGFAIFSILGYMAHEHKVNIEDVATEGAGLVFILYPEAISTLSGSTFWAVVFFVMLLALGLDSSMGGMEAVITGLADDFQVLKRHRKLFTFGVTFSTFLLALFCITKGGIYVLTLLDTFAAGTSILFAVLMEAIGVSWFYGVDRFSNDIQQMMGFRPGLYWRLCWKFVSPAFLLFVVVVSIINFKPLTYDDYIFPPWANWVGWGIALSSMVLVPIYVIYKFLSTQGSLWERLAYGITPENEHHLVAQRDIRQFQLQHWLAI
Description: PDSP Primary Binding target: SLC6A2 - Compounds are tested at 10 uM concentration, plate are incubated at room temperature in the dark for 90 minutes. Reaction are stopped by vacuum filtration onto 0.3% polyethyleneimine soaked filter mats using Filtermate harvester. Scintilation cocktail is then melted onto microwave-dried filters on a hot plate and the radio activity is counted in Microbia counter.

Chain of 5-hydroxytryptamine receptor 1E (Homo sapiens) (P28566 whole entry): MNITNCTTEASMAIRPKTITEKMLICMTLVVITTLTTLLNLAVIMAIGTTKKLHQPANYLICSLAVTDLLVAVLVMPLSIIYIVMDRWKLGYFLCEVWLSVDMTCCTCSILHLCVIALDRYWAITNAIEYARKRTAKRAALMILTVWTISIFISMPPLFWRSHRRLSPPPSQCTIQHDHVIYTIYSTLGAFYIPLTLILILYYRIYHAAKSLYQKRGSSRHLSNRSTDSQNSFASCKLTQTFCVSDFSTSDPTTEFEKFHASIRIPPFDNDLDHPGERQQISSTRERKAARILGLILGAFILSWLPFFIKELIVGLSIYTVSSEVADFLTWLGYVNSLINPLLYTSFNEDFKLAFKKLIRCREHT
Chain of 5-hydroxytryptamine receptor 1B (Homo sapiens) (P28222 whole entry): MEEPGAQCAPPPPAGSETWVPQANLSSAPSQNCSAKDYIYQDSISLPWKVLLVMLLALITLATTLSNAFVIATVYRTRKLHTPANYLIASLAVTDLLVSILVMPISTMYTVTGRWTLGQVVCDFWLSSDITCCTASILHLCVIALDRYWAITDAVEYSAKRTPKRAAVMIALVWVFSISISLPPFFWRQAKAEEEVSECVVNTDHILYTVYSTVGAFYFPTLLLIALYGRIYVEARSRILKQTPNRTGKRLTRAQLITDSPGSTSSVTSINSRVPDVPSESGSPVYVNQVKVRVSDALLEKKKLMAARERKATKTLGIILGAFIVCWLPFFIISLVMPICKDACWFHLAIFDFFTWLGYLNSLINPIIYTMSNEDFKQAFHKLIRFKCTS
Chain of 5-hydroxytryptamine receptor 7 (Homo sapiens) (P34969 whole entry): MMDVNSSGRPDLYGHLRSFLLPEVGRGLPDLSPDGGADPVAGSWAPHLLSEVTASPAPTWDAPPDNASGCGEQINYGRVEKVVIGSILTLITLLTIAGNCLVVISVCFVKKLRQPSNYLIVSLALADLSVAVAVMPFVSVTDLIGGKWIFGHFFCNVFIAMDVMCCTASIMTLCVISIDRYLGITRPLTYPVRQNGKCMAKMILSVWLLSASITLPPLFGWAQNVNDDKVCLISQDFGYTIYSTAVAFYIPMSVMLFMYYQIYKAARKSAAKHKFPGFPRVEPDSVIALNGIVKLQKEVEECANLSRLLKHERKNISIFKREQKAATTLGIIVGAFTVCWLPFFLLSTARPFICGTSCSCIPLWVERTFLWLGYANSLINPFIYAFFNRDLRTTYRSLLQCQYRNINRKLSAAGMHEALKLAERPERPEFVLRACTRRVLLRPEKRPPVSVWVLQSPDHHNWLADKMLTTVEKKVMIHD
Chain of Beta-2 adrenergic receptor (Homo sapiens) (P07550 whole entry, looked up): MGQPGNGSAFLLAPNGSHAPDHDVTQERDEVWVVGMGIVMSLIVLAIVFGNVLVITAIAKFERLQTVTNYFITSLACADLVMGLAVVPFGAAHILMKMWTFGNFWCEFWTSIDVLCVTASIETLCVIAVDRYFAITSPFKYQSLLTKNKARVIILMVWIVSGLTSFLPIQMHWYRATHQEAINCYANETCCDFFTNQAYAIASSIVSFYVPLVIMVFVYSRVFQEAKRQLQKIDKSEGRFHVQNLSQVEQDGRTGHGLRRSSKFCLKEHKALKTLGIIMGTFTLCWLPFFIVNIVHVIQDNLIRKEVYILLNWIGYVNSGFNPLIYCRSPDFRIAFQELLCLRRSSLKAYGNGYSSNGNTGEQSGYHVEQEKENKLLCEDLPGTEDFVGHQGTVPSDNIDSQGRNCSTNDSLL
Chain of Sigma non-opioid intracellular receptor 1 (Homo sapiens) (Q99720 whole entry): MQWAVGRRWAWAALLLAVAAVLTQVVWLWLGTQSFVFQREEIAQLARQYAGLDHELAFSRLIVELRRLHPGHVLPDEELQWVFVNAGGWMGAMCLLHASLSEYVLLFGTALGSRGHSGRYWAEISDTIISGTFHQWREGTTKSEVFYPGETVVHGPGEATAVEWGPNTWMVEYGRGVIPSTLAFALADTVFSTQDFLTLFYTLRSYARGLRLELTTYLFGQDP
Chain of D(2) dopamine receptor (Homo sapiens) (P14416 whole entry): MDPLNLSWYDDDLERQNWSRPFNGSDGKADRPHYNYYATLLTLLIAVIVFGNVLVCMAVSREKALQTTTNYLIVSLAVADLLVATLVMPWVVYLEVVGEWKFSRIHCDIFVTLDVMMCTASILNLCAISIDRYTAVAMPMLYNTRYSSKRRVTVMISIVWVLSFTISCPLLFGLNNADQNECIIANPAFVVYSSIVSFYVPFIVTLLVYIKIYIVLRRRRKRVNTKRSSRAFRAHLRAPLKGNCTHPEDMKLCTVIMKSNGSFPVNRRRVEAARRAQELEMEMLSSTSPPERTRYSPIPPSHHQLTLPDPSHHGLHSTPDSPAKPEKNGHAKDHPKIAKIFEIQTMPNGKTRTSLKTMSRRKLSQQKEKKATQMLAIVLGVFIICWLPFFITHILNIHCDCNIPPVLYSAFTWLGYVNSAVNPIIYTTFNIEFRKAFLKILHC

| Compound | inhibition [1] | inhibition [2] | inhibition [3] | inhibition [4] | inhibition [5] | inhibition [6] | inhibition [7] | inhibition [8] | inhibition [9] | inhibition [10] | inhibition [11] | inhibition [12] |
| --- | --- | --- | --- | --- | --- | --- | --- | --- | --- | --- | --- | --- |
| O=C(c1cc2c(cc1F)OC(c1ccc(F)cc1)(c1ccc(Cl)cc1Cl)O2)N1CCOCC1 (stereo unspecified) | 3.46% | 18.1% | 28.5% | 38.9% | 5.79% | -6.56% | 5.49% | 27.6% | 19.9% | 5.01% | 48.5% | 52% |
| CCOC(=O)c1c(C)[nH]c2ccc3c(c12)CN1CCc2cc(OC)ccc2C1O3 (stereo unspecified) | 36.5% | 86.7% | 60% | 95% | 23.2% | 2.39% | 4.19% | 54% | -6.16% | 9.23% | 29.3% | 51% |
| NC[C@@H]1O[C@H](C23CC4CC(CC(C4)C2)C3)Cc2c1ccc(O)c2O | 3.98% | 85.1% | 64.3% | 102% | 29.6% | 29.6% | 21.6% | 22.6% | 22.3% | 25.1% | 48.5% | 58.5% |
| COc1ccc(NS(=O)(=O)c2sc3ccc(Cl)cc3c2C)cc1N1CCNCC1 | 33% | 75.7% | 35.1% | 35.2% | 32.3% | 16.8% | 37.4% | 48.8% | 13.8% | 38.3% | 83.6% | 61.7% |
| CCc1ccc(OCc2ccccc2C(=O)Nc2ccc3nc(C)cc(N)c3c2)cc1 | 57.8% | 42.2% | 55.2% | 40.9% | 8.05% | 24% | 36.2% | 46.6% | 9.69% | 46.5% | 58.1% | 87.4% |
| Cc1nc2sccn2c(=O)c1CCN1CCC(=C(c2ccc(F)cc2)c2ccc(F)cc2)CC1 | 97.8% | 98.8% | 84% | 94.9% | 1.44% | -0.02% | 95.4% | 96% | 80.8% | 90.2% | 87.3% | 53.7% |
| Cc1cccc([C@H](C)c2c[nH]cn2)c1C | 42.8% | 104% | 97.8% | 99.1% | 20.7% | 3.92% | 14.4% | 31.3% | -0.76% | 68.1% | 1.54% | 50.9% |
| Cc1nc(-c2ccc(-c3ccc(C(=O)N4CCc5cc6c(cc54)C4(CCN(C)CC4)CO6)cc3)c(C)c2)no1 | 66.3% | 73% | 69.5% | 38% | 10.4% | 93.6% | 29% | 95.1% | 0.78% | 25.5% | 75.2% | 69.2% |
